Reference: US10160724B2, “Tetrahydropyridine derivatives and their use as antibacterial agents” (Dong-A St Co., Ltd., priority 2016, dated 2018)
Converted amounts (≈) assume the structure as drawn. Where two headings read alike, the source gives them in different places.

How the values were obtained:
Experiment in all cases: In vitro antibiotic activity, agar dilution method (Mueller-Hinton agar, NCCLS)
Assay type in all cases: cell-based
[1] = system: E. coli ATCC 25922; conditions: Escherichia coli
Procedure: (§1) To measure the antibiotic activity of the compounds prepared by Examples, antibiotic activity test in vitro was performed by agar dilution method using Mueller-Hinton agar according to the NCCLS (National Committee for Clinical Laboratory Standards. 2000. Methods for dilution antimicrobial susceptibility tests for bacteria that grow aerobiocally. Approved standard, NCCLS document M7-M5, 5th ed, vol 20, no 2. National Committee for Clinical Laboratory Standards, Wayne, Pa.). The test strain was Escherichia coli (ATCC 25922), Klebsiella pneumonia (ATCC 29665) and Pseudomonas aeriginosa (PAO1).

[2] = system: P. aeruginosa PAO1; conditions: Pseudomonas aeruginosa
Procedure: as §1

[3] = system: K. pneumoniae ATCC 29665; conditions: Klebsiella pneumoniae
Procedure: as §1

[4] = ATCC25922, agar dilution, Mueller-Hinton agar, read-out: MIC for E. coli ATCC 25922
[5] = PAO1, agar dilution, Mueller-Hinton agar, read-out: MIC for P. aeruginosa PAO1
[6] = ATCC29665, agar dilution, Mueller-Hinton agar, read-out: MIC for K. pneumoniae ATCC 29665

SMILES	MIC ([1]; ATCC25922, read-out: MIC for E. coli ATCC 25922)	MIC ([2]; PAO1, read-out: MIC for P. aeruginosa PAO1)	MIC ([3]; ATCC29665, read-out: MIC for K. pneumoniae ATCC 29665)	MIC [1, 4]	MIC [2, 5]	MIC [3, 6]
CN(C)c1ccc(C#Cc2ccc(C3=CCN(CCC(C)(C(=O)NO)S(C)(=O)=O)CC3)cc2)cc1 (stereo not drawn) [Example 1, 4-(4-(4-((4-(dimethylamino)phenyl)ethynyl)phenyl)-3,6-dihydropyridin-1(2H)-yl)-N-hydroxy-2-methyl-2-(methylsulfonyl)butanamide]	> 16 µg/mL	> 16 µg/mL	> 16 µg/mL			
CC(CCN1CC=C(c2ccc(C#Cc3ccccc3)cc2)CC1)(C(=O)NO)S(C)(=O)=O (stereo not drawn) [Example 2, N-hydroxy-2-methyl-2-(methylsulfonyl)-4-(4-(4-(phenylethynyl)phenyl)-3,6-dihydropyridin-1(2H)-yl)butanamide]				< 1 µg/mL	1 to 8 µg/mL (≈ 2.21 to 17.7 µM)	1 to 8 µg/mL (≈ 2.21 to 17.7 µM)
COc1ccc(C#Cc2ccc(C3=CCN(CCC(C)(C(=O)NO)S(C)(=O)=O)CC3)cc2)cc1 (stereo not drawn) [Example 3, N-hydroxy-4-(4-(4-((4-methoxyphenyl)ethynyl)phenyl)-3,6-dihydropyridin-1(2H)-yl)-2-methyl-2-(methylsulfonyl)butanamide]				> 16 µg/mL	> 16 µg/mL	1 to 8 µg/mL (≈ 2.07 to 16.6 µM)
CC(CCN1CC=C(c2ccc(C#CC3CC3)cc2)CC1)(C(=O)NO)S(C)(=O)=O (stereo not drawn) [Example 4, 4-(4-(4-(cyclopropylethynyl)phenyl)-3,6-dihydropyridin-1(2H)-yl)-N-hydroxy-2-methyl-2-(methylsulfonyl)butanamide]				< 1 µg/mL	1 to 8 µg/mL (≈ 2.4 to 19.2 µM)	< 1 µg/mL
CC(CCN1CC=C(c2ccc(C#CCCO)cc2)CC1)(C(=O)NO)S(C)(=O)=O (stereo not drawn) [Example 5, N-hydroxy-4-(4-(4-(4-hydroxybut-1-yn-1-yl)phenyl)-3,6-dihydropyridin-1(2H)-yl)-2-methyl-2-(methylsulfonyl)butanamide]				1 to 8 µg/mL (≈ 2.38 to 19 µM)	1 to 8 µg/mL (≈ 2.38 to 19 µM)	8 to 16 µg/mL (≈ 19 to 38 µM)
CCCCC#Cc1ccc(C2=CCN(CCC(C)(C(=O)NO)S(C)(=O)=O)CC2)cc1 (stereo not drawn) [Example 6, 4-(4-(4-(hex-1-yn-1-yl)phenyl)-3,6-dihydropyridin-1(2H)-yl)-N-hydroxy-2-methyl-2-(methylsulfonyl)butanamide]				< 1 µg/mL	8 to 16 µg/mL (≈ 18.5 to 37 µM)	1 to 8 µg/mL (≈ 2.31 to 18.5 µM)
CN(C)CC#Cc1ccc(C2=CCN(CCC(C)(C(=O)NO)S(C)(=O)=O)CC2)cc1 (stereo not drawn) [Example 7, 4-(4-(4-(3-(dimethylamino)prop-1-yn-1-yl)phenyl)-3,6-dihydropyridin-1(2H)-yl)-N-hydroxy-2-methyl-2-(methylsulfonyl)butanamide]				1 to 8 µg/mL (≈ 2.31 to 18.5 µM)	1 to 8 µg/mL (≈ 2.31 to 18.5 µM)	1 to 8 µg/mL (≈ 2.31 to 18.5 µM)
CC(O)C#Cc1ccc(C2=CCN(CCC(C)(C(=O)NO)S(C)(=O)=O)CC2)cc1 (stereo not drawn) [Example 8, N-hydroxy-4-(4-(4-(3-hydroxybut-1-yn-1-yl)phenyl)-3,6-dihydropyridin-1(2H)-yl)-2-methyl-2-(methylsulfonyl)butanamide]				> 16 µg/mL	> 16 µg/mL	> 16 µg/mL
CC(CCN1CC=C(c2ccc(C#CC3CCCC3)cc2)CC1)(C(=O)NO)S(C)(=O)=O (stereo not drawn) [Example 9, 4-(4-(4-(cyclopentylethynyl)phenyl)-3,6-dihydropyridin-1(2H)-yl)-N-hydroxy-2-methyl-2-(methylsulfonyl)butanamide]				< 1 µg/mL	> 16 µg/mL	1 to 8 µg/mL (≈ 2.25 to 18 µM)
CC(CCN1CC=C(c2ccc(C#CC3CCCCC3)cc2)CC1)(C(=O)NO)S(C)(=O)=O (stereo not drawn) [Example 10, 4-(4-(4-(cyclohexylethynyl)phenyl)-3,6-dihydropyridin-1(2H)-yl)-N-hydroxy-2-methyl-2-(methylsulfonyl)butanamide]				1 to 8 µg/mL (≈ 2.18 to 17.4 µM)	8 to 16 µg/mL (≈ 17.4 to 34.9 µM)	8 to 16 µg/mL (≈ 17.4 to 34.9 µM)
CCCC#Cc1ccc(C2=CCN(CCC(C)(C(=O)NO)S(C)(=O)=O)CC2)cc1 (stereo not drawn) [Example 11, N-hydroxy-2-methyl-2-(methylsulfonyl)-4-(4-(4-(pent-1-yn-1-yl)phenyl)-3,6-dihydropyridin-1(2H)-yl)butanamide]				< 1 µg/mL	1 to 8 µg/mL (≈ 2.39 to 19.1 µM)	1 to 8 µg/mL (≈ 2.39 to 19.1 µM)
CC(CCN1CC=C(c2ccc(C#CCC3CCCCC3)cc2)CC1)(C(=O)NO)S(C)(=O)=O (stereo not drawn) [Example 12, 4-(4-(4-(3-cyclohexylprop-1-yn-1-yl)phenyl)-3,6-dihydropyridin-1(2H)-yl)-N-hydroxy-2-methyl-2-(methylsulfonyl)butanamide]				8 to 16 µg/mL (≈ 16.9 to 33.9 µM)	> 16 µg/mL	8 to 16 µg/mL (≈ 16.9 to 33.9 µM)
CC(C)CC#Cc1ccc(C2=CCN(CCC(C)(C(=O)NO)S(C)(=O)=O)CC2)cc1 (stereo not drawn) [Example 13, N-hydroxy-2-methyl-4-(4-(4-(4-methylpent-1-yn-1-yl)phenyl)-3,6-dihydropyridin-1(2H)-yl)-2-(methylsulfonyl)butanamide]				< 1 µg/mL	8 to 16 µg/mL (≈ 18.5 to 37 µM)	1 to 8 µg/mL (≈ 2.31 to 18.5 µM)
CC(CCN1CC=C(c2ccc(C#CCCCCl)cc2)CC1)(C(=O)NO)S(C)(=O)=O (stereo not drawn) [Example 14, 4-(4-(4-(5-chloropent-1-yn-1-yl)phenyl)-3,6-dihydropyridin-1(2H)-yl)-N-hydroxy-2-methyl-2-(methylsulfonyl)butanamide]				< 1 µg/mL	1 to 8 µg/mL (≈ 2.21 to 17.7 µM)	1 to 8 µg/mL (≈ 2.21 to 17.7 µM)
CC(CCN1CC=C(c2ccc(C#CCN3CCCC3)cc2)CC1)(C(=O)NO)S(C)(=O)=O (stereo not drawn) [Example 15, N-hydroxy-2-methyl-2-(methylsulfonyl)-4-(4-(4-(3-(pyrrolidin-1-yl)prop-1-yn-1-yl)phenyl)-3,6-dihydropyridin-1(2H)-yl)butanamide]				1 to 8 µg/mL (≈ 2.18 to 17.4 µM)	1 to 8 µg/mL (≈ 2.18 to 17.4 µM)	8 to 16 µg/mL (≈ 17.4 to 34.8 µM)
CCN(CC)CC#Cc1ccc(C2=CCN(CCC(C)(C(=O)NO)S(C)(=O)=O)CC2)cc1 (stereo not drawn) [Example 16, 4-(4-(4-(3-(diethylamino)prop-1-yn-1-yl)phenyl)-3,6-dihydropyridin-1(2H)-yl)-N-hydroxy-2-methyl-2-(methylsulfonyl)butanamide]				1 to 8 µg/mL (≈ 2.17 to 17.3 µM)	1 to 8 µg/mL (≈ 2.17 to 17.3 µM)	1 to 8 µg/mL (≈ 2.17 to 17.3 µM)
CC(CCN1CC=C(c2ccc(C#CCN3CCC[C@H]3CO)cc2)CC1)(C(=O)NO)S(C)(=O)=O (stereo partly drawn) [Example 17, N-hydroxy-4-(4-(4-(3-((S)-2-(hydroxymethyl)pyrrolidin-1-yl)prop-1-yn-1-yl)phenyl)-3,6-dihydropyridin-1(2H)-yl)-2-methyl-2-(methylsulfonyl)butanamide]				> 16 µg/mL	1 to 8 µg/mL (≈ 2.04 to 16.3 µM)	8 to 16 µg/mL (≈ 16.3 to 32.7 µM)
CC(CCN1CC=C(c2ccc(C#CCCCO)cc2)CC1)(C(=O)NO)S(C)(=O)=O (stereo not drawn) [Example 18, N-hydroxy-4-(4-(4-(5-hydroxypent-1-yn-1-yl)phenyl)-3,6-dihydropyridin-1(2H)-yl)-2-methyl-2-(methylsulfonyl)butanamide]				< 1 µg/mL	1 to 8 µg/mL (≈ 2.3 to 18.4 µM)	1 to 8 µg/mL (≈ 2.3 to 18.4 µM)
CC(CCN1CC=C(c2ccc(C#CCCCOS(C)(=O)=O)cc2)CC1)(C(=O)NO)S(C)(=O)=O (stereo not drawn) [Example 19, 5-(4-(1-(4-(hydroxyamino)-3-methyl-3-(methylsulfonyl)-4-oxobutyl)-1,2,3,6-tetrahydropyridin-4-yl)phenyl)pent-4-yn-1-yl methanesulfonate]				< 1 µg/mL	1 to 8 µg/mL	1 to 8 µg/mL
CN(C)CCCC#Cc1ccc(C2=CCN(CCC(C)(C(=O)NO)S(C)(=O)=O)CC2)cc1 (stereo not drawn) [Example 20, 4-(4-(4-(5-(dimethylamino)pent-1-yn-1-yl)phenyl)-3,6-dihydropyridin-1(2H)-yl)-N-hydroxy-2-methyl-2-(methylsulfonyl)butanamide]				1 to 8 µg/mL (≈ 2.17 to 17.3 µM)	8 to 16 µg/mL (≈ 17.3 to 34.7 µM)	8 to 16 µg/mL (≈ 17.3 to 34.7 µM)
CC(CCN1CC=C(c2ccc(C#CCCCN)cc2)CC1)(C(=O)NO)S(C)(=O)=O (stereo not drawn) [Example 21, 4-(4-(4-(5-aminopent-1-yn-1-yl)phenyl)-3,6-dihydropyridin-1(2H)-yl)-N-hydroxy-2-methyl-2-(methylsulfonyl)butanamide]				8 to 16 µg/mL (≈ 18.5 to 36.9 µM)	> 16 µg/mL	> 16 µg/mL
CC(CCN1CC=C(c2ccc(C#CCO)cc2)CC1)(C(=O)NO)S(C)(=O)=O (stereo not drawn) [Example 22, N-hydroxy-4-(4-(4-(3-hydroxyprop-1-yn-1-yl)phenyl)-3,6-dihydropyridin-1(2H)-yl)-2-methyl-2-(methylsulfonyl)butanamide]				1 to 8 µg/mL (≈ 2.46 to 19.7 µM)	1 to 8 µg/mL (≈ 2.46 to 19.7 µM)	> 16 µg/mL
COCC#Cc1ccc(C2=CCN(CCC(C)(C(=O)NO)S(C)(=O)=O)CC2)cc1 (stereo not drawn) [Example 23, N-hydroxy-4-(4-(4-(3-methoxyprop-1-yn-1-yl)phenyl)-3,6-dihydropyridin-1(2H)-yl)-2-methyl-2-(methylsulfonyl)butanamide]				< 1 µg/mL	1 to 8 µg/mL (≈ 2.38 to 19 µM)	1 to 8 µg/mL (≈ 2.38 to 19 µM)
